What was measured:
[1] = system: Endothelin-1 (ET-1) release from PASMCs; assay: TGF-β1-stimulated ET-1 release from PASMCs (chemiluminescent immunoassay); assay type: cell-based, human; conditions: 1 μM; TGF-β1 10 ng/ml; PASMCs conditioned medium
Method: Endothelin-1 (ET-1) release from PASMCs was measured in conditioned media using a chemiluminescent immunoassay system (QuantiGlo®, R&D Systems, UK). Cells were grown to confluence in 24-well plates (5×10^4 cells per well) in DMEM containing 10% FBS and serum-deprived for 24-hours prior to stimulation with transforming growth factor-[…] (TGF-β1) (10 ng/ml) and treatment with pravastatin and NO-releasing pravastatin (Example 1 of WO 2004/105754). Release experiments were also conducted in the presence of mevalonic acid (MVA), farnesylpyrophosphate (FPP), geranylgeranylpyrophosphate (GGPP) and inhibitors of geranylgeranyl transferase (GGTI-2133), farnesyl transferase (FTI-277) and Rho Kinase (Y27632). Production of MMP-9 was induced by dual stimulation with tumour necrosis factor-α (TNF-α) (10 ng/ml) and phorbol 12-[…] 13-acetate (PMA) (0.1 μM) and measured in conditioned medium using a Biotrack® ELISA-based immunoassay (GE Healthcare, UK). In the presence of TGF-β1 (10 ng/ml), ET-1 production by PASMCs increased markedly, compared with control serum-deprived cells.

[2] = system: Human pulmonary artery smooth muscle cells (PASMCs); assay: DNA synthesis by [3H-methyl]-thymidine incorporation in PDGF-stimulated PASMCs; assay type: cell-based; conditions: PDGF-BB 5 ng/ml, 24 hours
Method: DNA synthesis was measured by [^3H-methyl]-thymidine incorporation over 24 hours as previously described.
Human pulmonary artery smooth muscle cells (PASMCs) were seeded in 48-well plates at a density of 5×10^4 cells/well in Dulbecc's modified Eagle medium (DMEM) containing 10% fetal bovine […] (FBS). Cells were allowed to adhere overnight, providing a monolayer of approximately 80-90% confluence, and then quiesced for 48 hours with daily changes in serum-free DMEM. Cells were subsequently incubated in fresh medium containing 0.25 μCi/well [^3H-methyl]-thymidine (GE Healthcare, Little Chalfont, Buck's, UK) and treated with pravastatin and NO-releasing pravastatin (Example 1 of WO 2004/105754) at stated concentrations in the presence and absence of recombinant human platelet-derived growth factor-BB (PDGF) (5 ng/ml). Four to six replicates were analysed per treatment and [^3H-methyl]-thymidine uptake determined by liquid scintillation analysis (2200CA TRI-CARB, United Technologies Packcard, Pangbourne, UK).

CC[C@H](C)C(=O)O[C@H]1C[C@H](O)C=C2C=C[C@H](C)[C@H](CC[C@@H](O)C[C@@H](O)CC(=O)O)[C@H]21 [Pravastatin]
ET-1 (% of TGF-β1) [1]: 89.9 ± 12.8 % of TGF-β1
[3H-Methyl]-thymidine incorporation (% of PDGF) ([2]; 1 μM): 95.0 ± 3.6 % of PDGF
[3H-Methyl]-thymidine incorporation (% of PDGF) ([2]; 5 μM): 92.5 ± 4.2 % of PDGF
[3H-Methyl]-thymidine incorporation (% of PDGF) ([2]; 10 μM): 89.5 ± 2.4 % of PDGF

Source: patent US20100174075A1, “USE OF NITRIC OXIDE-RELEASING STATINS IN THE TREATMENT OF PULMONARY ARTERIAL HYPERTENSION” (NICOX S.A., priority 2007, published 2010)
